SMILES strings stand for the structures. pKi: −log10 of the molar value.

For the experiment, the target named is T1, Neuromedin-K receptor (Homo sapiens, UniProt P29371).
T1 sequence (P29371 whole entry): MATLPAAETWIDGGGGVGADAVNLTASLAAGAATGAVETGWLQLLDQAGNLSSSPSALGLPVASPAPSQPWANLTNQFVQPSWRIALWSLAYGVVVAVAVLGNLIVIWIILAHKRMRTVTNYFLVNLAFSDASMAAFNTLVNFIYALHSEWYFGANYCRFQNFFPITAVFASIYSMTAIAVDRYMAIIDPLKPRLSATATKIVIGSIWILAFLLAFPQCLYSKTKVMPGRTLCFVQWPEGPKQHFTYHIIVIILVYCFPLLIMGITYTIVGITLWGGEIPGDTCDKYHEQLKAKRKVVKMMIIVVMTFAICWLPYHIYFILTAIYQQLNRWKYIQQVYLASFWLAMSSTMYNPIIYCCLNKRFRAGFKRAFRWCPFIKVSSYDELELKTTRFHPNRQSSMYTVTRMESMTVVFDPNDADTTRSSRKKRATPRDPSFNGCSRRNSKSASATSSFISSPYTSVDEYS
Briefly: Binding affinity to human NK3 receptor expressed in CHO cells. It counts as cell-based.

Regarding `CCCCC(NC(=O)c1cc(-c2ccccc2)nc2ccccc12)c1ccccc1` (stereo unspecified), the pKi was 6.80.

For the origin of these results see ChEMBL document CHEMBL1926671, “3D-Quantitative structure-activity relationship and docking studies of the tachykinin NK3 receptor” (Bioorg Med Chem Lett, 2011).
